# From US9409905B2, “Antibacterial compounds and methods for use” (PTC THERAPEUTICS, INC., priority 2011, dated 2016)
# Columns and labels:
# [1] = tested on: Escherichia coli (E. coli) BAS849; assay: Antibacterial activity, microbroth dilution MIC (Table 1); assay type: cell-based; details: microbroth dilution, super sensitive Gram-negative E. coli BAS849, read-out: MIC, BAS849
# Procedure, shortened: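 Each strain is exposed to test compound in a microbroth dilution series; visible growth is scored macroscopically, and the lowest growth-free concentration is recorded as MIC in μg/mL.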
# [2] = tested on: Staphylococcus aureus (S. aureus) 29213; assay: as above; assay type: cell-based; details: microbroth dilution, Gram-positive S. aureus 29213, read-out: MIC, 29213
# Procedure, shortened: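 Values are MICs (μg/mL): the smallest drug amount at which macroscopically visible bacterial growth is absent under assay conditions, from a microdilution method in broth.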
# [3] = tested on: E. coli 25922; assay: as above; assay type: cell-based, Escherichia coli; details: Escherichia coli; microbroth dilution; control Gram-negative E. coli 25922 strain; read-out: MIC, 25922
# Procedure, shortened: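 Read-out: visual absence of growth. The lowest concentration meeting this gives the MIC, expressed in μg/mL, with microbroth dilution as the method.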
# [4] = tested on: E. coli LZ3111; assay: Antibacterial activity, MIC, quinolone resistant strain (Table 2); assay type: cell-based; details: Escherichia coli, LZ3111, read-out: MIC LZ3111
# Procedure, shortened: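 Microbroth dilution method; MIC (μg/mL) is the lowest drug concentration preventing macroscopically visible growth under test conditions.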
# [5] = tested on: Acinetobacter baumannii (A. baumannii) BAA747; assay: Antibacterial activity, MIC (Table 4); assay type: cell-based; details: A. baumannii BAA747, read-out: MIC, BAA747
# Description: (§1) The antibacterial activity from a microbroth dilution method may be presented as the minimum inhibitory concentration (MIC in μg/mL). The MIC value is the lowest concentration of drug which prevents macroscopically visible growth under test conditions.
# (§2) Antibacterial activity of test compounds against the Gram-negative Acinetobacter baumannii (A. baumannii) BAA747 and Klebsiella pneumoniae (K. pneumoniae) 35657 bacterium and the resistant A. baumannii MXX2240 and K. pneumoniae MXX1232 strains are shown in Table 4. The MMX strains are multi-drug resistant clinical isolates.
# [6] = tested on: Klebsiella pneumoniae (K. pneumoniae) 35657; assay: Antibacterial activity, MIC (Table 4); assay type: cell-based; details: K. pneumoniae 35657, read-out: MIC, 35657
# Description: as §1, §2
# [7] = tested on: Pseudomonas aeruginosa (P. aeruginosa) 27853; assay: Antibacterial activity, MIC (Table 5); assay type: cell-based; details: P. aeruginosa 27853, read-out: MIC, 27853
# Description: as §1
# Antibacterial activity of test compounds against the Gram-negative bacterium Pseudomonas aeruginosa (P. aeruginosa) 27853 is shown in Table 5.
SMILES,MIC [1] [µg/mL],MIC [2] [µg/mL],MIC [3] [µg/mL],MIC [4] [µg/mL],MIC [5] [µg/mL],MIC [6] [µg/mL],MIC [7] [µg/mL]
"CCc1cc(C(=O)O)c(=O)[nH]c1-c1ccc2c(c1)cc(CCN1CCOCC1)n2C [Cpd 162, 5-ethyl-6-(1-methyl-2-(2-morpholinoethyl)-1H-indol-5-yl)-2-oxo-1,2-dihydropyridine-3-carboxylic acid]",< 1,12.5 to 150,1 to 3.5,12.5 to 150,3.5 to 12.5,1 to 3.5,12.5 to 150
"CCc1cc(C(=O)O)c(=O)[nH]c1-c1ccc2c(c1)cc1n2CCC1N1CCOCC1 (stereo not drawn) [Cpd 155, 5-ethyl-6-(1-morpholino-2,3-dihydro-1H-pyrrolo[1,2-a]indol-7-yl)-2-oxo-1,2-dihydropyridine-3-carboxylic acid]",< 1,12.5 to 150,3.5 to 12.5,12.5 to 150,12.5 to 150,3.5 to 12.5,12.5 to 150
"CCc1cc(C(=O)O)c(=O)[nH]c1-c1ccc2c(c1)cc(CN1CCC(O)C1)n2C (stereo not drawn) [Cpd 125, 5-ethyl-6-(2-((3-hydroxypyrrolidin-1-yl)methyl)-1-methyl-1H-indol-5-yl)-2-oxo-1,2-dihydropyridine-3-carboxylic acid]",< 1,12.5 to 150,1 to 3.5,12.5 to 150,12.5 to 150,< 1,12.5 to 150
"CCc1c(-c2ccc3c(c2)cc(C2CCNC2)n3C)[nH]c(=O)c(C(=O)O)c1O (stereo not drawn) [Cpd 306, 5-ethyl-4-hydroxy-6-(1-methyl-2-(pyrrolidin-3-yl)-1H-indol-5-yl)-2-oxo-1,2-dihydropyridine-3-carboxylic acid]",1 to 3.5,12.5 to 150,3.5 to 12.5,3.5 to 12.5,12.5 to 150,3.5 to 12.5,12.5 to 150
"CCc1c(-c2ccc3c(c2)cc(CNCc2cccc(OC)c2)n3C)[nH]c(=O)c(C(=O)O)c1O [Cpd 296, 5-ethyl-4-hydroxy-6-(2-((3-methoxybenzylamino)methyl)-1-methyl-1H-indol-5-yl)-2-oxo-1,2-dihydropyridine-3-carboxylic acid]",< 1,3.5 to 12.5,< 1,12.5 to 150,,,
"CCc1cc(C(=O)O)c(=O)[nH]c1-c1ccc2c(cc(CN3CCCC3)n2C)c1F [Cpd 158, 5-ethyl-6-(4-fluoro-1-methyl-2-(pyrrolidin-1-ylmethyl)-1H-indol-5-yl)-2-oxo-1,2-dihydropyridine-3-carboxylic acid]",< 1,12.5 to 150,1 to 3.5,12.5 to 150,,,
"CCc1c(-c2ccc3c(c2)cc(CN2CCC(NC(C)=O)C2)n3C)[nH]c(=O)c(C(=O)O)c1O (stereo not drawn) [Cpd 183, 6-(2-((3-acetamidopyrrolidin-1-yl)methyl)-1-methyl-1H-indol-5-yl)-5-ethyl-4-hydroxy-2-oxo-1,2-dihydropyridine-3-carboxylic acid]",< 1,12.5 to 150,1 to 3.5,12.5 to 150,,,
"CCc1c(-c2ccc3c(c2)cc(CNCC2CCCCC2)n3C)[nH]c(=O)c(C(=O)O)c1O.Cl [Cpd 222, 6-(2-((cyclohexylmethylamino)methyl)-1-methyl-1H-indol-5-yl)-5-ethyl-4-hydroxy-2-oxo-1,2-dihydropyridine-3-carboxylic acid hydrochloride]",< 1,1 to 3.5,< 1,12.5 to 150,,,
"CN(C)Cc1cc2cc(-c3cc(O)c(C(=O)O)c(=O)[nH]3)ccc2n1C [Cpd 326, 6-(2-((dimethylamino)methyl)-1-methyl-1H-indol-5-yl)-4-hydroxy-2-oxo-1,2-dihydropyridine-3-carboxylic acid]",12.5 to 150,12.5 to 150,12.5 to 150,12.5 to 150,,,
"CCc1cc(C(=O)O)c(=O)[nH]c1-c1ccc2c(c1)c(CN(Cc1ccccc1)Cc1ccccc1)cn2C [Cpd 77, 6-(3-((dibenzylamino)methyl)-1-methyl-1H-indol-5-yl)-5-ethyl-2-oxo-1,2-dihydropyridine-3-carboxylic acid]",3.5 to 12.5,3.5 to 12.5,12.5 to 150,12.5 to 150,,,
"CCc1cc(C(=O)O)c(=O)[nH]c1-c1ccc2c(c1)cc1n2CCC1N1CCC(N(C)C)C1 (stereo not drawn) [Cpd 153, 6-(1-(3-(dimethylamino)pyrrolidin-1-yl)-2,3-dihydro-1H-pyrrolo[1,2-a]indol-7-yl)-5-ethyl-2-oxo-1,2-dihydropyridine-3-carboxylic acid]",< 1,12.5 to 150,3.5 to 12.5,12.5 to 150,,,
"CCc1cc(C(=O)O)c(=O)[nH]c1-c1ccc2c(c1)cc(C(C)(C)N(C)C)n2C [Cpd 87, 6-(2-(2-(dimethylamino)propan-2-yl)-1-methyl-1H-indol-5-yl)-5-ethyl-2-oxo-1,2-dihydropyridine-3-carboxylic acid]",< 1,12.5 to 150,3.5 to 12.5,12.5 to 150,,,
"CCc1cc(C(=O)O)c(=O)[nH]c1-c1ccc2c(c1)c(CN)cn2C [Cpd 74, 6-(3-(aminomethyl)-1-methyl-1H-indol-5-yl)-5-ethyl-2-oxo-1,2-dihydropyridine-3-carboxylic acid]",12.5 to 150,12.5 to 150,12.5 to 150,12.5 to 150,,,
"CCc1cc(C(=O)O)c(=O)[nH]c1-c1cc2cc(CN3CCCC3)n(C)c2s1.Cl [Cpd 64, 5-ethyl-6-(6-methyl-5-(pyrrolidin-1-ylmethyl)-6H-thieno[2,3-b]pyrrol-2-yl)-2-oxo-1,2-dihydropyridine-3-carboxylic acid hydrochloride]",< 1,12.5 to 150,12.5 to 150,12.5 to 150,,,
"CCc1cc(C(=O)O)c(=O)[nH]c1-c1cc2cc(CN3CCCC3)n(C)c2cc1OC [Cpd 107, 5-ethyl-6-(6-methoxy-1-methyl-2-(pyrrolidin-1-ylmethyl)-1H-indol-5-yl)-2-oxo-1,2-dihydropyridine-3-carboxylic acid]",12.5 to 150,12.5 to 150,12.5 to 150,12.5 to 150,,,
"CCc1cc(C(=O)O)c(=O)[nH]c1-c1ccc2c(c1)cc(CN1CCC(NC)C1)n2C (stereo not drawn) [Cpd 127, 5-ethyl-6-(1-methyl-2-((3-(methylamino)pyrrolidin-1-yl)methyl)-1H-indol-5-yl)-2-oxo-1,2-dihydropyridine-3-carboxylic acid]",1 to 3.5,12.5 to 150,12.5 to 150,12.5 to 150,,,
"CCc1cc(C(=O)O)c(=O)[nH]c1-c1ccc2c(c1)cc(C1=NCCN1)n2C [Cpd 85, 6-(2-(4,5-dihydro-1H-imidazol-2-yl)-1-methyl-1H-indol-5-yl)-5-ethyl-2-oxo-1,2-dihydropyridine-3-carboxylic acid]",1 to 3.5,12.5 to 150,12.5 to 150,12.5 to 150,,,
"CCc1cc(C(=O)O)c(=O)[nH]c1-c1ccc2c(c1)cc(CN1CCCC1c1ccccc1)n2C (stereo not drawn) [Cpd 131, 5-ethyl-6-(1-methyl-2-((2-phenylpyrrolidin-1-yl)methyl)-1H-indol-5-yl)-2-oxo-1,2-dihydropyridine-3-carboxylic acid]",< 1,1 to 3.5,1 to 3.5,12.5 to 150,3.5 to 12.5,12.5 to 150,12.5 to 150
